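Briefly, cells in 96-well plates were exposed to five compound concentrations for 48 h, and endpoints were estimated by linear interpolation. Here, GI50 denotes the concentration required for 50% inhibition of growth.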 Activity calls are given as the source filed them. Cut-off read from the data, not from the text of the source: active = GI50 up to about 1.1 µM and inactive = higher.

Holding throughout (test): NCI tumour cell line growth inhibition, 48 h
Assay [1] deals with A549.
The test system of assay [2] is ACHN.
Assay [3] deals with HOP-62.
Assay [4] deals with HOP-92.
The test system of assay [5] is K562.
Assay [6] deals with Malme-3M.
The test system of assay [7] is NCI-H226.
The test system of assay [8] is NCI-H23.
The subject of assay [9] is OVCAR-4.
Assay [10] relates to OVCAR-5.
The test system of assay [11] is OVCAR-8.
In assay [12] the test system is SF-539.
In assay [13] the test system is SK-MEL-28.
Assay [14] relates to SNB-19.
Assay [15] concerns SW-620.
In assay [16] the test system is TK-10.
The test system of assay [17] is U-251.
Assay [18] deals with UACC-257.
For assay [19], the system named is UO-31.
Assay [20] deals with EKVX.

Take `Cc1nnc2nc(-c3ccc(Cl)cc3Cl)cc(-c3ccc(Cl)cc3)n12`: the GI50 in assay [1] was 76.4 µM (inactive); in [2], > 100 µM (inactive); in [3] it was > 100 µM (inactive); in [4], 1.47 µM (inactive); in [5], 50.4 µM (inactive); in assay [6], > 100 µM (inactive). The GI50 was > 100 µM (inactive) in assay [7]; > 100 µM (inactive) in assay [8]; 23.3 µM (inactive) in assay [9]; > 100 µM (inactive) in assay [10]; > 100 µM (inactive) in assay [11]; > 100 µM (inactive) in assay [12]. Further, the GI50 in assay [13] is 21 µM (inactive); in assay [14] it was > 100 µM (inactive); in assay [15], > 100 µM (inactive); in assay [16] it was > 100 µM (inactive); in assay [17] it was > 100 µM (inactive); in [18], > 100 µM (inactive). In addition, in assay [19], the GI50 is 24.4 µM (inactive).

Turning to `Cc1cc2nc3c(C#N)c4c(c(Nc5ccc(Cl)cc5)n3c2cc1C)CCC4`, the GI50 was 20.6 µM (inactive) in assay [2]; 33.8 µM (inactive) in [20]; 58.7 µM (inactive) in [3]; 23.6 µM (inactive) in assay [4]; 23.8 µM (inactive) in assay [6]; 22.9 µM (inactive) in assay [7]. Also, the GI50 in assay [8] is 26.3 µM (inactive); in [9] it was 32.5 µM (inactive); in assay [10], 17.3 µM (inactive); in [11] it was 19.3 µM (inactive); in assay [12] it was 27.1 µM (inactive); in assay [13] it was 22.1 µM (inactive). The GI50 is 17.9 µM (inactive) in assay [15], 11.1 µM (inactive) in assay [16], 18.9 µM (inactive) in assay [17] and 16 µM (inactive) in [18].

Turning to `O=[N+]([O-])C1C2C=CC(C2)[C@H]1c1ccc(Cl)cc1Cl` (some centres undefined), the GI50 in assay [1] was 35.2 µM (inactive); in assay [2], 33 µM (inactive); in assay [3] it was > 10 µM (inactive); in [4] it was 23.3 µM (inactive); in assay [5], 35.4 µM (inactive); in assay [6] it was 42.3 µM (inactive). Also, the GI50 in assay [7] was 49 µM (inactive); in [8], 36.7 µM (inactive); in assay [9], > 10 µM (inactive); in assay [10], 75.2 µM (inactive); in assay [11] it was 57.1 µM (inactive); in assay [12], 35.8 µM (inactive). The GI50 in [13] is 19.7 µM (inactive); in assay [14], 48.5 µM (inactive); in assay [15], 74.5 µM (inactive); in [16] it was 69.7 µM (inactive); in assay [17] it was 35.3 µM (inactive); in [18], 31.8 µM (inactive). For the same molecule, in [19], the GI50 was 26.4 µM (inactive).

`O=C(c1ccccc1)c1c(CC(O)c2ccccc2)n(C(=O)c2ccccc2)c2ccccc12` (centres undefined): the GI50 is 31.6 µM (inactive) in assay [1]; 34.4 µM (inactive) in assay [2]; 24.2 µM (inactive) in assay [3]; 29.7 µM (inactive) in assay [4]; 27.9 µM (inactive) in assay [5]; 56.2 µM (inactive) in assay [6]. Further, the GI50 is 31.6 µM (inactive) in [7]; 19 µM (inactive) in assay [8]; 35.5 µM (inactive) in assay [9]; > 100 µM (inactive) in assay [10]; 57.7 µM (inactive) in assay [11]; 34.2 µM (inactive) in [12]. The GI50 was 95.1 µM (inactive) in assay [13]; 36.4 µM (inactive) in [14]; 50.7 µM (inactive) in [15]; > 100 µM (inactive) in assay [16]; 36.1 µM (inactive) in [17]; 35.3 µM (inactive) in [18]. Moreover, the GI50 in [19] was 19.9 µM (inactive).

As to `O=C1CN=C(C[N+](=O)[O-])c2ccccc21`, the GI50 in [1], in [2], in assay [20], in assay [3], in assay [4] and in [5] was > 100 µM (inactive) throughout. Besides, the GI50 in assay [6], in [7], in assay [8], in assay [9], in assay [10] and in assay [11] was > 100 µM (inactive) each time. Besides, the GI50 in assay [12], in assay [13], in assay [14], in assay [15], in [17] and in assay [18] was > 100 µM (inactive) throughout. Moreover, the GI50 in assay [19] was > 100 µM (inactive).

Consider `CCN1c2ccccc2-c2c3c1cc(C)cc3c1ccccc1[n+]2CC`, for which the GI50 in assay [1] is 2.4 µM (inactive); in assay [2], 2.16 µM (inactive); in [3], 2.04 µM (inactive); in assay [4], 1.4 µM (inactive); in assay [5] it was 0.323 µM (active); in assay [6], 1.15 µM (inactive). The GI50 in assay [7] was 1.75 µM (inactive); in assay [8], 1.32 µM (inactive); in assay [9] it was 1.57 µM (inactive); in assay [10] it was 1.5 µM (inactive); in assay [11], 0.427 µM (active); in assay [12], 1.19 µM (inactive). The GI50 in assay [13] is 1.19 µM (inactive); in assay [14] it was 0.528 µM (active); in assay [15], 1.11 µM (active); in assay [16] it was 2.56 µM (inactive); in [17], 0.571 µM (active); in assay [18], 0.437 µM (active). The GI50 in assay [19] was 7.13 µM (inactive).

As for `CCCCCCCCCCCCCCCCCc1nc(Cl)nc(Cl)c1Cl`, the GI50 in [1], in assay [2], in assay [3], in [4], in assay [5] and in assay [6] was > 100 µM (inactive) each time. Further, the GI50 was 15.6 µM (inactive) in [7]; > 100 µM (inactive) in assay [8]; > 100 µM (inactive) in [9]; > 100 µM (inactive) in [10]; > 100 µM (inactive) in assay [11]; > 100 µM (inactive) in assay [12]. Moreover, the GI50 in [13], in [14], in assay [15], in assay [16], in assay [17] and in assay [19] was > 100 µM (inactive) each time.

As for `NC(=S)NNC(=O)CCC(=O)Nc1ccc(Cl)cc1Cl`, the GI50 was > 100 µM (inactive) in assay [1]; > 100 µM (inactive) in assay [2]; > 100 µM (inactive) in assay [3]; > 100 µM (inactive) in assay [4]; 17.7 µM (inactive) in assay [5]; > 100 µM (inactive) in assay [6]. For the same molecule, the GI50 in assay [7], in [8], in [9], in assay [10], in assay [11] and in assay [12] was > 100 µM (inactive) in each case. In addition, the GI50 in assay [13], in [14], in [15], in assay [16], in assay [17] and in assay [18] was > 100 µM (inactive) throughout. In addition, the GI50 in [19] was > 100 µM (inactive).

As to `Oc1ccc(/C=N/c2ccccc2O)cc1`, the GI50 in assay [1] was 54.2 µM (inactive); in assay [2], 60.7 µM (inactive); in assay [20], 48 µM (inactive); in [3], 67 µM (inactive); in assay [4], > 100 µM (inactive); in [5] it was 24.7 µM (inactive). The GI50 is 94.6 µM (inactive) in assay [7]; 30.3 µM (inactive) in assay [8]; > 100 µM (inactive) in assay [9]; > 100 µM (inactive) in assay [10]; 39.4 µM (inactive) in [11]; 71.3 µM (inactive) in [12]. For the same molecule, the GI50 in assay [13] is > 100 µM (inactive); in [14], > 100 µM (inactive); in assay [15] it was 31.3 µM (inactive); in assay [16] it was 59.7 µM (inactive); in [17], 31.3 µM (inactive); in assay [18], 22.3 µM (inactive). Besides, in assay [19], the GI50 was 25.9 µM (inactive).

As for `c1ccc(-c2ccc(-c3ccc(C4=NCCN4)cc3)o2)cc1`, the GI50 in assay [1] is 2.64 µM (inactive); in assay [2] it was 2.95 µM (inactive); in assay [20], 3.37 µM (inactive); in assay [3], 3.67 µM (inactive); in [4] it was 2.17 µM (inactive); in [5], 1.42 µM (inactive). Moreover, the GI50 is 2.99 µM (inactive) in [7]; 4.32 µM (inactive) in assay [8]; 6.11 µM (inactive) in assay [9]; 2.69 µM (inactive) in assay [10]; 3.59 µM (inactive) in [11]; 2.11 µM (inactive) in assay [12]. The GI50 in assay [13] is 1.8 µM (inactive); in assay [14] it was 2.4 µM (inactive); in assay [15], 2 µM (inactive); in [16] it was 5.41 µM (inactive); in assay [17], 1.92 µM (inactive); in [18] it was 2.15 µM (inactive). Further, the GI50 in assay [19] is 1.71 µM (inactive).

Regarding `COc1cc2c(c(OC)c1OC)-c1ccc(SC)c(=O)cc1C(CC(=O)Oc1ccccc1F)C2` (centres undefined), the GI50 in assay [1] is 0.0226 µM (active); in assay [2] it was 0.0834 µM (active); in assay [3], 0.0175 µM (active); in assay [4] it was 0.0377 µM (active); in [5] it was < 0.0075 µM (active); in assay [6], 0.0575 µM (active). Further, the GI50 in assay [7] is 0.0413 µM (active); in [8], 0.0219 µM (active); in assay [9] it was 1.03 µM (active); in assay [10], 2.94 µM (inactive); in assay [11], 0.0328 µM (active); in assay [12] it was < 0.0075 µM (active). Besides, the GI50 in [13] is 0.055 µM (active); in assay [14], 0.0139 µM (active); in assay [15] it was 0.00802 µM (active); in [16], > 7.5 µM (inactive); in assay [17], < 0.0075 µM (active); in [19], 0.127 µM (active).
